Results on 35 molecules are retold here after the NIST ThermoML archive (doi:10.1016/j.fluid.2014.11.020).

The data set in a line: activity coefficient (dimensionless); of the first substance listed, at infinite dilution; xn = mol fraction of the nth substance listed. The conditions noted are these: Liquid, Chromatography, x1 = 0.

Numbers after ± are expanded uncertainties.

As to `Cc1ccccc1C` [1,2-dimethylbenzene] + CCCCCCCCn1cc[n+](COCCC)c1C.N#C[N-]C#N, the activity coefficient (323.15 K) came to 1.33 ± 0.09, the activity coefficient (333.15 K) came to 1.33 ± 0.09 and the activity coefficient (343.15 K) was 1.33 ± 0.09.

As to `Cc1ccccc1C` [1,2-dimethylbenzene] + CCCCCCCCn1cc[n+](COCCC)c1C.O=S(=O)([N-]S(=O)(=O)C(F)(F)F)C(F)(F)F, the activity coefficient (323.15 K) was determined as 0.94 ± 0.06, the activity coefficient (333.15 K) was 0.94 ± 0.06 and the activity coefficient (343.15 K) came to 0.94 ± 0.06.

In the case of `Cc1ccccc1C` [1,2-dimethylbenzene] + CCCCCCCCn1cc[n+](COCCCOC[n+]2ccn(CCCCCCCC)c2C)c1C.N#C[N-]C#N.N#C[N-]C#N, the activity coefficient turned out to be 1.16 ± 0.07 (323.15 K), 1.18 ± 0.08 (333.15 K) and 1.22 ± 0.08 (343.15 K).

`Cc1ccccc1C` [1,2-dimethylbenzene] + CCCCCCCCn1cc[n+](COCCCOC[n+]2ccn(CCCCCCCC)c2C)c1C.O=S(=O)([N-]S(=O)(=O)C(F)(F)F)C(F)(F)F.O=S(=O)([N-]S(=O)(=O)C(F)(F)F)C(F)(F)F: the activity coefficient amounted to 0.68 ± 0.05 (323.15 K), 0.66 ± 0.05 (333.15 K) and 0.66 ± 0.05 (343.15 K).

Take `Cc1ccccc1C` [1,2-dimethylbenzene] + CCCOC[n+]1ccc(N(C)C)cc1.O=S(=O)([N-]S(=O)(=O)C(F)(F)F)C(F)(F)F: the activity coefficient runs as follows: (323.15 K) 1.24 ± 0.08; (333.15 K) 1.31 ± 0.09; (343.15 K) 1.33 ± 0.09.

Regarding `Cc1ccccc1C` [1,2-dimethylbenzene] + CCCOC[n+]1ccn(C)c1.F[B-](F)(F)F, the activity coefficient is, setting by setting: (323.15 K) 9.13 ± 0.62; (333.15 K) 8.97 ± 0.61; (343.15 K) 8.93 ± 0.61.

Consider `Cc1ccccc1C` [1,2-dimethylbenzene] + CCCOC[n+]1ccn(C)c1.N#C[N-]C#N, for which the activity coefficient worked out at 5.05 ± 0.34 (323.15 K), 5.13 ± 0.35 (333.15 K) and 5.22 ± 0.36 (343.15 K).

On to `Cc1ccccc1C` [1,2-dimethylbenzene] + CCCOC[n+]1ccn(C)c1.O=S(=O)([N-]S(=O)(=O)C(F)(F)F)C(F)(F)F, for which the activity coefficient is 2.3 ± 0.16 (323.15 K), 2.28 ± 0.16 (333.15 K) and 2.29 ± 0.16 (343.15 K).

With `Cc1ccccc1C` [1,2-dimethylbenzene] + CCCOC[n+]1ccn(Cc2ccccc2)c1.F[B-](F)(F)F, the activity coefficient is, setting by setting: (323.15 K) 4.3 ± 0.29; (333.15 K) 4.17 ± 0.28; (343.15 K) 4.22 ± 0.29.

In the case of `Cc1ccccc1C` [1,2-dimethylbenzene] + CCCOC[n+]1ccn(Cc2ccccc2)c1.N#C[N-]C#N, the activity coefficient (323.15 K) was determined as 3.05 ± 0.21, the activity coefficient (333.15 K) was 3.03 ± 0.21 and the activity coefficient (343.15 K) came to 3.01 ± 0.2.

Consider `Cc1ccccc1C` [1,2-dimethylbenzene] + CCCOC[n+]1ccn(Cc2ccccc2)c1.O=S(=O)([N-]S(=O)(=O)C(F)(F)F)C(F)(F)F, for which the activity coefficient by setting is: (323.15 K) 1.58 ± 0.1; (333.15 K) 1.23 ± 0.08; (343.15 K) 1.22 ± 0.08.

In the case of `Cc1ccccc1C` [1,2-dimethylbenzene] + CN(C)c1cc[n+](COCCCOC[n+]2ccc(N(C)C)cc2)cc1.O=S(=O)([N-]S(=O)(=O)C(F)(F)F)C(F)(F)F.O=S(=O)([N-]S(=O)(=O)C(F)(F)F)C(F)(F)F, the activity coefficient by setting is: (323.15 K) 1.18 ± 0.08; (333.15 K) 1.2 ± 0.08; (343.15 K) 1.22 ± 0.08.

On to `Cc1ccccc1C` [1,2-dimethylbenzene] + Cn1cc[n+](COCCCOC[n+]2ccn(C)c2)c1.N#C[N-]C#N.N#C[N-]C#N, for which the activity coefficient runs as follows: (323.15 K) 8.42 ± 0.57; (333.15 K) 8.26 ± 0.56; (343.15 K) 8.25 ± 0.56.

For `Cc1ccccc1C` [1,2-dimethylbenzene] + Cn1cc[n+](COCCCOC[n+]2ccn(C)c2)c1.O=S(=O)([N-]S(=O)(=O)C(F)(F)F)C(F)(F)F.O=S(=O)([N-]S(=O)(=O)C(F)(F)F)C(F)(F)F, the activity coefficient came out at 2.08 ± 0.14 (323.15 K), 2.1 ± 0.14 (333.15 K) and 2.04 ± 0.14 (343.15 K).

As for `Cc1ccccc1C` [1,2-dimethylbenzene] + N#C[N-]C#N.N#C[N-]C#N.c1ccc(Cn2cc[n+](COCCCOC[n+]3ccn(Cc4ccccc4)c3)c2)cc1, the activity coefficient came out at 7.13 ± 0.49 (323.15 K), 6.87 ± 0.47 (333.15 K) and 6.71 ± 0.46 (343.15 K).

Regarding `Cc1cccc(C)c1` [1,3-dimethylbenzene] + CCCCCCCCn1cc[n+](COCCC)c1C.N#C[N-]C#N, the activity coefficient (323.15 K) was found to be 1.54 ± 0.1, the activity coefficient (333.15 K) worked out at 1.54 ± 0.1 and the activity coefficient (343.15 K) is 1.57 ± 0.1.

For the molecule `Cc1cccc(C)c1` [1,3-dimethylbenzene] + CCCCCCCCn1cc[n+](COCCC)c1C.O=S(=O)([N-]S(=O)(=O)C(F)(F)F)C(F)(F)F, the activity coefficient (323.15 K) was found to be 1.02 ± 0.06, the activity coefficient (333.15 K) came to 1 ± 0.06 and the activity coefficient (343.15 K) amounted to 1.01 ± 0.06.

Turning to `Cc1cccc(C)c1` [1,3-dimethylbenzene] + CCCCCCCCn1cc[n+](COCCCOC[n+]2ccn(CCCCCCCC)c2C)c1C.N#C[N-]C#N.N#C[N-]C#N, the activity coefficient is 1.36 ± 0.09 (323.15 K), 1.37 ± 0.09 (333.15 K) and 1.39 ± 0.09 (343.15 K).

On to `Cc1cccc(C)c1` [1,3-dimethylbenzene] + CCCCCCCCn1cc[n+](COCCCOC[n+]2ccn(CCCCCCCC)c2C)c1C.O=S(=O)([N-]S(=O)(=O)C(F)(F)F)C(F)(F)F.O=S(=O)([N-]S(=O)(=O)C(F)(F)F)C(F)(F)F, for which the activity coefficient (323.15 K) stood at 0.75 ± 0.05, the activity coefficient (333.15 K) amounted to 0.72 ± 0.05 and the activity coefficient (343.15 K) was found to be 0.74 ± 0.05.

`Cc1cccc(C)c1` [1,3-dimethylbenzene] + CCCOC[n+]1ccc(N(C)C)cc1.O=S(=O)([N-]S(=O)(=O)C(F)(F)F)C(F)(F)F: the activity coefficient turned out to be 1.4 ± 0.09 (323.15 K), 1.47 ± 0.1 (333.15 K) and 1.48 ± 0.1 (343.15 K).

`Cc1cccc(C)c1` [1,3-dimethylbenzene] + CCCOC[n+]1ccn(C)c1.F[B-](F)(F)F: the activity coefficient came out at 11 ± 0.75 (323.15 K), 10.8 ± 0.74 (333.15 K) and 10.7 ± 0.73 (343.15 K).

Regarding `Cc1cccc(C)c1` [1,3-dimethylbenzene] + CCCOC[n+]1ccn(C)c1.N#C[N-]C#N, the activity coefficient by setting is: (323.15 K) 6.24 ± 0.43; (333.15 K) 6.24 ± 0.43; (343.15 K) 6.41 ± 0.44.

Take `Cc1cccc(C)c1` [1,3-dimethylbenzene] + CCCOC[n+]1ccn(C)c1.O=S(=O)([N-]S(=O)(=O)C(F)(F)F)C(F)(F)F: the activity coefficient reads like this: (323.15 K) 2.59 ± 0.18; (333.15 K) 2.54 ± 0.17; (343.15 K) 2.54 ± 0.17.

Turning to `Cc1cccc(C)c1` [1,3-dimethylbenzene] + CCCOC[n+]1ccn(Cc2ccccc2)c1.F[B-](F)(F)F, the activity coefficient (323.15 K) came out at 5.41 ± 0.37, the activity coefficient (333.15 K) was found to be 4.91 ± 0.33 and the activity coefficient (343.15 K) was 4.91 ± 0.33.

Turning to `Cc1cccc(C)c1` [1,3-dimethylbenzene] + CCCOC[n+]1ccn(Cc2ccccc2)c1.N#C[N-]C#N, the activity coefficient runs as follows: (323.15 K) 3.62 ± 0.25; (333.15 K) 3.52 ± 0.24; (343.15 K) 3.42 ± 0.23.

With `Cc1cccc(C)c1` [1,3-dimethylbenzene] + CCCOC[n+]1ccn(Cc2ccccc2)c1.O=S(=O)([N-]S(=O)(=O)C(F)(F)F)C(F)(F)F, the activity coefficient came to 1.55 ± 0.1 (323.15 K), 1.37 ± 0.09 (333.15 K) and 1.35 ± 0.09 (343.15 K).

Turning to `Cc1cccc(C)c1` [1,3-dimethylbenzene] + CN(C)c1cc[n+](COCCCOC[n+]2ccc(N(C)C)cc2)cc1.O=S(=O)([N-]S(=O)(=O)C(F)(F)F)C(F)(F)F.O=S(=O)([N-]S(=O)(=O)C(F)(F)F)C(F)(F)F, the activity coefficient (323.15 K) was determined as 1.36 ± 0.09, the activity coefficient (333.15 K) is 1.38 ± 0.09 and the activity coefficient (343.15 K) was 1.4 ± 0.09.

Turning to `Cc1cccc(C)c1` [1,3-dimethylbenzene] + Cn1cc[n+](COCCCOC[n+]2ccn(C)c2)c1.N#C[N-]C#N.N#C[N-]C#N, the activity coefficient (323.15 K) is 10.9 ± 0.75, the activity coefficient (333.15 K) was determined as 10.7 ± 0.73 and the activity coefficient (343.15 K) is 10.5 ± 0.72.

As to `Cc1cccc(C)c1` [1,3-dimethylbenzene] + Cn1cc[n+](COCCCOC[n+]2ccn(C)c2)c1.O=S(=O)([N-]S(=O)(=O)C(F)(F)F)C(F)(F)F.O=S(=O)([N-]S(=O)(=O)C(F)(F)F)C(F)(F)F, the activity coefficient by setting is: (323.15 K) 2.39 ± 0.16; (333.15 K) 2.41 ± 0.16; (343.15 K) 2.38 ± 0.16.

With `Cc1cccc(C)c1` [1,3-dimethylbenzene] + N#C[N-]C#N.N#C[N-]C#N.c1ccc(Cn2cc[n+](COCCCOC[n+]3ccn(Cc4ccccc4)c3)c2)cc1, the activity coefficient was determined as 8.85 ± 0.6 (323.15 K), 8.51 ± 0.58 (333.15 K) and 8.32 ± 0.57 (343.15 K).

In the case of `Cc1ccc(C)cc1` [1,4-dimethylbenzene] + CCCCCCCCn1cc[n+](COCCC)c1C.N#C[N-]C#N, the activity coefficient runs as follows: (323.15 K) 1.51 ± 0.1; (333.15 K) 1.52 ± 0.1; (343.15 K) 1.56 ± 0.1.

`Cc1ccc(C)cc1` [1,4-dimethylbenzene] + CCCCCCCCn1cc[n+](COCCC)c1C.O=S(=O)([N-]S(=O)(=O)C(F)(F)F)C(F)(F)F: the activity coefficient (323.15 K) stood at 1.02 ± 0.06, the activity coefficient (333.15 K) was found to be 1.01 ± 0.06 and the activity coefficient (343.15 K) stood at 1 ± 0.06.

Regarding `Cc1ccc(C)cc1` [1,4-dimethylbenzene] + CCCCCCCCn1cc[n+](COCCCOC[n+]2ccn(CCCCCCCC)c2C)c1C.N#C[N-]C#N.N#C[N-]C#N, the activity coefficient runs as follows: (323.15 K) 1.34 ± 0.09; (333.15 K) 1.35 ± 0.09; (343.15 K) 1.36 ± 0.09.

For the molecule `Cc1ccc(C)cc1` [1,4-dimethylbenzene] + CCCCCCCCn1cc[n+](COCCCOC[n+]2ccn(CCCCCCCC)c2C)c1C.O=S(=O)([N-]S(=O)(=O)C(F)(F)F)C(F)(F)F.O=S(=O)([N-]S(=O)(=O)C(F)(F)F)C(F)(F)F, the activity coefficient (323.15 K) stood at 0.75 ± 0.05, the activity coefficient (333.15 K) amounted to 0.73 ± 0.05 and the activity coefficient (343.15 K) stood at 0.73 ± 0.05.

For `Cc1ccc(C)cc1` [1,4-dimethylbenzene] + CCCOC[n+]1ccc(N(C)C)cc1.O=S(=O)([N-]S(=O)(=O)C(F)(F)F)C(F)(F)F, the activity coefficient was determined as 1.38 ± 0.09 (323.15 K), 1.45 ± 0.1 (333.15 K) and 1.45 ± 0.1 (343.15 K).
